Assay results reported in patent publication EP0994107A1, “5-Arylisoxazol-4-yl-substituted 2-amino carboxylic acid compounds” (H. LUNDBECK A/S, priority 1993, dated 1995).

Assays:
AMPA receptors = test: [3H]AMPA binding (displacement of [3H]AMPA, in the presence of KSCN); conditions: only high affinity binding sites labelled
Protocol: In this test the affinity of a drug for AMPA receptors is determined by measuring the ability to displace [^3H]AMPA from AMPA receptors.
The test was carried out in accordance with a modified version of the method of Honoré, T. and Nielsen, M., Neurosci.Lett. 1985, 54, 27-32. The test was carried out in the presence of KSCN. This means that only the [^3H]AMPA high affinity binding sites were labelled.
The membrane preparations used were obtained in accordance with the method of Ransom, R.W. and Stec, J.Neurochem. 1988, 51, 830-836.

NMDA-receptor = test: [3H]CPP binding (displacement of [3H]CPP from the transmitter binding site)
AMPA = test: Cortical wedge model (electrophysiology, rat cortical wedge preparation), AMPA subtype; assay type: cell-based; conditions: receptor subtype AMPA; for EC50: agonist; for Ki: starred in IC50 column (*) = Ki value)
Protocol: (§1) The Cortical wedge model is a test in which slices of rat brain is examined in vitro in order to quantify the effect of ligands at the Glu-receptors and evaluate the pharmacological profile of the ligands (i.e. agonist/antagonist properties). The test was performed as described by Harrison, N.L. and Simmonds, M.A. Br.J. Pharmacol. 1985, 84, 381-391 as modified according to Wheatley, P.L. Br.J.Pharmacol. 1986, 87, 159P.

NMDA = test: Cortical wedge model (electrophysiology, rat cortical wedge preparation), NMDA subtype; assay type: cell-based; conditions: receptor subtype NMDA; for EC50: agonist; for IC50: antagonist
Protocol: as §1

KAIN = test: Cortical wedge model (electrophysiology, rat cortical wedge preparation), KAIN subtype; assay type: cell-based; conditions: receptor subtype KAIN
Protocol: as §1

Compound | IC50 (AMPA receptors) | IC50 (NMDA-receptor) | EC50 (AMPA) | Profile (AMPA) | Profile (NMDA) | further results
NC(Cc1c(O)noc1-c1cccs1)C(=O)O (racemic) [Compound 1a, (RS)-2-Amino-3-[3-hydroxy-5-(2-thienyl)isoxazol-4-yl]propionic Acid] | 0.28 µM | > 100 µM | 5.8 µM | Agonist |  | 
NC(C(=O)O)c1c(O)noc1-c1cccs1 (racemic) [Compound 2b, (RS)-2-Amino-2-[3-hydroxy-5-(2-thienyl)isoxazol-4-yl]acetic Acid] |  |  |  |  | Agonist | EC50 (NMDA): 30 µM
NC(C(=O)O)c1c(O)noc1-c1ccccc1 (racemic) [Compound 2a, (RS)-2-Amino-2-(3-hydroxy-5-phenylisoxazol-4-yl)acetic Acid] | 43 µM | 7.5 µM |  |  | Part. Ago.# | EC50 (NMDA): 300 µM
N[C@H](Cc1c(O)noc1-c1ccccc1)C(=O)O [Compound 14b, (R)-(-)-2-Amino-3-(3-hydroxy-5-phenylisoxazol-4-yl)propionic acid] |  |  |  | Antagonist |  | Ki (AMPA): 290 µM; Profile (KAIN): Antagonist; Ki (KAIN; starred in IC50 column (*) = Ki value)): 950 µM
NC(Cc1c(O)noc1-c1ccsc1)C(=O)O (racemic) [Compound 1b, (RS)-2-Amino-3-[3-hydroxy-5-(3-thienyl)isoxazol-4-yl]propionic Acid] | 3.5 µM | > 100 µM | 43 µM | Agonist |  | 
NC(CCc1c(O)noc1-c1ccsc1)C(=O)O (racemic) [Compound 4d, (RS)-2-Amino-4-[3-hydroxy-5-(3-thienyl)isoxazol-4-yl]butanoic Acid] | > 100 µM | 0.7 µM |  |  | Antagonist | IC50 (NMDA): 8.6 µM
Cc1ccc(-c2onc(O)c2CC(N)C(=O)O)s1 (racemic) [Compound 1f, (RS)-2-Amino-3-[3-hydroxy-5-(5-methyl-2-thienyl)isoxazol-4-yl]propionic Acid] |  |  | 130 µM | Agonist |  | 
NC(CCc1c(O)noc1-c1ccc(F)cc1)C(=O)O (racemic) [Compound 4a, (RS)-2-Amino-4-[5-(4-fluorophenyl)-3-hydroxyisoxazol-4-yl]butanoic Acid] | > 100 µM | 0.76 µM |  |  | Antagonist | IC50 (NMDA): 9 µM
NC(CCc1c(O)noc1-c1cccs1)C(=O)O (racemic) [Compound 4c, (RS)-2-Amino-4-[3-hydroxy-5-(2-thienyl)isoxazol-4-yl]butanoic Acid] | > 100 µM | 0.19 µM |  |  | Antagonist | IC50 (NMDA): 2.5 µM
Nc1c(NCc2c(O)noc2-c2ccsc2)c(=O)c1=O [Compound 5c, 4-[(2-Amino-3,4-dioxo-1-cyclobuten-1-yl)aminomethyl]-3-hydroxy-5-(3-thienyl)isoxazole] |  |  |  | Antagonist | Antagonist | 
NC(CCCc1c(O)noc1-c1ccccc1)C(=O)O (racemic) [Compound 3a, (RS)-2-Amino-5-(3-hydroxy-5-phenylisoxazol-4-yl)pentanoic Acid] | 9 µM | 21 µM | 240 µM | Agonist |  | 
NC(Cc1c(O)noc1-c1ccc(F)cc1)C(=O)O (single isomer, unassigned; (-)) [Compound 14c, (-)-2-Amino-3-[5-(4-fluorophenyl)-3-hydroxyisoxazol-4-yl]propionic Acid] |  |  |  | Antagonist |  | Ki (AMPA): 337 µM
NC(CCc1c(O)noc1-c1ccccc1)C(=O)O (racemic) [Compound 4b, (RS)-2-Amino-4-(3-hydroxy-5-phenylisoxazol-4-yl)butanoic Acid] | > 100 µM | 2.5 µM |  |  | Antagonist | IC50 (NMDA): 18 µM
NC(Cc1c(O)noc1-c1cccs1)C(=O)O (single isomer, unassigned; (-)) [Compound 15a, (-)-2-Amino-3-[3-hydroxy-5-(2-thienyl)isoxazol-4-yl]propionic Acid] |  |  |  | Antagonist |  | IC50 (AMPA; antagonist): 300 µM

Now from value to molecule, other results behind:

IC50 (AMPA receptors) | IC50 (NMDA-receptor) | EC50 (AMPA) | Compound | Profile (AMPA) | Profile (NMDA) | further results
 |  | 2.7 µM | NC(Cc1c(O)noc1-c1cccs1)C(=O)O (single isomer, unassigned; (+)) [Compound 15b, (+)-2-Amino-3-[3-hydroxy-5-(2-thienyl)isoxazol-4-yl]propionic acid] | Agonist |  | 
38 µM | 6.9 µM |  | Nc1c(NCc2c(O)noc2-c2cccs2)c(=O)c1=O [Compound 5b, 4-[(2-Amino-3,4-dioxo-1-cyclobuten-1-yl)aminomethyl]-3-hydroxy-5-(2-thienyl)isoxazole] |  | Antagonist | IC50 (NMDA): 30 µM
 |  | 55 µM | NC(Cc1c(O)noc1-c1ccccn1)C(=O)O (racemic) [Compound 13a, (RS)-2-Amino-3-[3-hydroxy-5-(2-pyridyl)isoxazol-4-yl)propionic Acid] | Agonist |  | 
 |  | 170 µM | NC(Cc1c(O)noc1-c1ccc(F)cc1)C(=O)O (single isomer, unassigned; (+)) [Compound 14d, (+)-2-Amino-3-[5-(4-fluorophenyl)-3-hydroxyisoxazol-4-yl]propionic Acid] | Agonist |  | 
5.5 µM |  | 230 µM | N[C@@H](Cc1c(O)noc1-c1ccccc1)C(=O)O [Compound 14a, (S)-(+)-2-Amino-3-(3-hydroxy-5-phenylisoxazol-4-yl)propionic acid] | Agonist |  | 
 |  | 7.4 µM | NC(Cc1c(O)noc1-c1ccncc1)C(=O)O (racemic) [Compound 13b, (RS)-2-Amino-3-[3-hydroxy-5-(4-pyridyl)isoxazol-4-yl]propionic Acid] | Agonist |  | 
33 µM | 22 µM |  | Nc1c(NCc2c(O)noc2-c2ccccc2)c(=O)c1=O [Compound 5a, 4-[(2-Amino-3,4-dioxo-1-cyclobuten-1-yl)aminomethyl]-3-hydroxy-5-phenylisoxazole] | Antagonist | Antagonist | Profile (KAIN): Antagonist
